Values after ≈ are worked out from the molar mass of the structure shown.
Columns and labels:
[1] = system: Acinetobacter calcoaceticus AC 54; experiment: Minimum inhibitory concentration (MIC); format: cell-based; conditions: Acinetobacter calcoaceticus, AC54, Acinetobacter calcoaceticus AC 54, Gram -
Protocol: (§1) The compounds of the present invention (A, C, E, F, G, H and I) and ofloxacin as control were dissolved in 0.1N aqueous potassium hydroxide to prepare a solution of 5000 μg/ml in concentration. The compounds of the present invention (B, D and J) were dissolved in sterilized distilled water to prepare a solution of 5000 μg/ml in concentration. Each solution was diluted with sterilized distilled water to prepare a standard solution with a concentration of each test compound: 1000 μg/ml. The test was carried out by a method approved by Japan Society of Chemotherapy [cf. Chemotherapy, 29, 76-79 (1981)(TOKYO)].

[2] = system: Bacillus subtilis ATCC 6633; experiment: Minimum inhibitory concentration (MIC); format: cell-based; conditions: ATCC6633; Bacillus subtilis ATCC 6633, Gram +; read-out: Minimum inhibitory concentration (MIC)
Protocol: as §1

[3] = system: Citrobacter freundii NIHJ 10018-68; experiment: Minimum inhibitory concentration (MIC); format: cell-based; conditions: NIHJ10018; Citrobacter freundii NIHJ 10018-68, Gram -
Protocol: as §1

[4] = system: Escherichia coli KC-14; experiment: Minimum inhibitory concentration (MIC); format: cell-based; conditions: KC14; Escherichia coli KC-14, Gram -
Protocol: as §1

[5] = system: Escherichia coli NIHJ JC-2; experiment: Minimum inhibitory concentration (MIC); format: cell-based; conditions: NIHJJC2; Escherichia coli NIHJ JC-2, Gram -
Protocol: as §1

[6] = system: Klebsiella pneumoniae PCI 602; experiment: Minimum inhibitory concentration (MIC); format: cell-based; conditions: Klebsiella pneumoniae, PCI602, Klebsiella pneumoniae PCI 602, Gram -; read-out: Minimum inhibitory concentration (MIC)
Protocol: as §1

[7] = system: Micrococcus luteus ATCC 9341; experiment: Minimum inhibitory concentration (MIC); format: cell-based; conditions: ATCC9341; Micrococcus luteus ATCC 9341, Gram +
Protocol: as §1

[8] = system: Proteus mirabilis IFO 3849; experiment: Minimum inhibitory concentration (MIC); format: cell-based; conditions: IFO3849; Proteus mirabilis IFO 3849, Gram -
Protocol: as §1

[9] = system: Salmonella typhimurium IID 971; experiment: Minimum inhibitory concentration (MIC); format: cell-based; conditions: Salmonella enterica, Salmonella typhimurium IID 971, Gram -; read-out: Minimum inhibitory concentration (MIC)
Protocol: as §1

[10] = system: Serratia marcescens IAM 1184; experiment: Minimum inhibitory concentration (MIC); format: cell-based; conditions: Serratia marcescens, IAM1184, Serratia marcescens IAM 1184, Gram -
Protocol: as §1

[11] = system: Shigella sonnei EW-33; experiment: Minimum inhibitory concentration (MIC); format: cell-based; conditions: EW33; Shigella sonnei EW-33, Gram -
Protocol: as §1

[12] = system: Staphylococcus aureus FDA 209P JC-1; experiment: Minimum inhibitory concentration (MIC); format: cell-based; conditions: FDA209P; Staphylococcus aureus FDA 209P JC-1, Gram +
Protocol: as §1

[13] = system: Staphylococcus aureus IID 803; experiment: Minimum inhibitory concentration (MIC); format: cell-based; conditions: IID803; Staphylococcus aureus IID 803, Gram +; read-out: Minimum inhibitory concentration (MIC)
Protocol: as §1

[14] = system: Staphylococcus epidermidis IAM-1296; experiment: Minimum inhibitory concentration (MIC); format: cell-based; conditions: Staphylococcus epidermidis, IAM1296, Staphylococcus epidermidis IAM-1296, Gram +
Protocol: as §1

[15] = system: methicillin resistant Staphylococcus aureus; experiment: Minimum inhibitory concentration against clinically isolated methicillin resistant Staphylococcus aureus; format: cell-based
Protocol: The compound (B) was dissolved in sterilized distilled water, and ofloxacin in 0.1N aqueous potassium hydroxide, to prepare a solution of 5000 μg/ml in concentration each. The above solutions were then diluted with sterilized distilled water to prepare a standard solution with a concentration of the test compound: 1000 μg/ml each. The test was carried out by a method approved by Japan Society of Chemotherapy (ibidem) to measure minimum inhibitory concentration (MIC) against 54 strains of clinically isolated methicillin resistant Staphylococcus aureus, from which there were calculated a range of MIC (MICrange) of the test compound against these resistant strains, a minimum concentration for inhibiting the growth of the strains by 50% (MIC50) and a minimum concentration for inhibiting the growth of the strains by 90% (MIC90).

[16] = system: Pseudomonas aeruginosa E-2; experiment: Effect on treatment of general infectious disease; format: in vivo, ddY male mice; conditions: E2, 168 h, P. aeruginosa E-2, 1.6×10^4 CFU/mouse i.p., oral one hour after infection, survival after one week
Protocol: Pseudomonas aeruginosa E-2 (1.6×10^4 CFU/mouse)
The test microorganisms were subjected to standing culture in Trypto-Soya Agar "Nissui" (made by Nissui Seiyaku K.K., Japan) at 37° C. for 16 to 18 hours. The culture was then diluted with PBS (Dulbecco's phosphate buffered saline) and mixed with an equivalent amount of 10% (w/v) Mucin (BACTO MUCIN BACTERIOLOGICAL, made by Difco Co.) to prepare a microorganism solution. The thus prepared microorganism solution (0.5 ml each) was intraperitoneally innoculated to ddY male mice (4 weeks age, weighing 20-22 g, 5 mice in each group), to infect the animals. One hour after the infection, the compound (B) of the present invention dissolved in sterilized distilled water or ofloxacin suspended in 0.5% (w/v) aqueous sodium carboxymethyl cellulose solution was orally adiministered to mice.
The mice were daily observed for one week, and from the survival number of mice after one week, the 50% effective dose (ED50) was calculated by Weil method.

[17] = system: E. coli KC-14; experiment: Effect on treatment of infectiousness of the genito-urinary tract; format: in vivo, ICR female mice; conditions: Escherichia coli, KC14, 48 h; E. coli KC-14, 5.6×10^5 CFU/mouse into urinary bladder; oral; not more than 10^4 living bacteria/1 g of kidney regarded as effective
Protocol: 2. Test microorganism and inoculum size E. coli KC-14 (5.6×10^5 CFU/mouse) 3. Method:
A microorganism solution (0.1 ml) prepared in the same manner as described in Experiment 3 was introduced into urinary bladder through urinary tract of ICR female mice (5 weeks age, weighing 20 to 22 g, 5 mice in each group), and then urinary meatus was clasped with clip for 4 hours to infect the animals. After taking off the clip, the compound (B) of the present invention dissolved in sterilized distilled water or ofloxacin suspended in 0.5% aqueous sodium carboxymethyl cellulose solution was orally administered to mice. Two days after the infection, mice kidneys were taken out and weighed, to which PBS (Dulbecco's phosphate buffered saline) was added and the mixture was homogenized. The homogenate was then diluted with PBS and inoculated onto a plate of modified Drigalski Agar (BTB lactose agar "Nissui", made by Nissui Seiyaku K.K., Japan) and cultured at 37° C. for 18 hours. The number of the colonies of infectious bacteria grown on the plate was counted. The number of living bacteria per 1 g of kidney was calculated from the number of colonies and the kidney weight. The living bacteria number/1 g of kidney of not more than 10^4 was regarded as effective and an effective dose for 50% mice (ED50) was calculated by Weil method.

Question: How did the MIC [1] turn out when `CC1COc2c(N3CCN(C)CC3)c(F)cc3c(=O)c(C(=O)O)cn1c23` (racemic) [Ofloxacin, reference compound] was run?
Answer: The MIC was 0.39 µg/mL (≈ 1.08 µM).

Question: And the MIC [2]?
Answer: Its MIC is 0.1 µg/mL (≈ 0.277 µM).

Question: What about the MIC [3] of the same compound?
Answer: The MIC was 0.39 µg/mL (≈ 1.08 µM).

Question: And the MIC [4]?
Answer: The MIC was 0.1 µg/mL (≈ 0.277 µM).

Question: What about the MIC [5] of the same compound?
Answer: Its MIC is 0.1 µg/mL (≈ 0.277 µM).

Question: And the MIC [6]?
Answer: Its MIC is 0.05 µg/mL (≈ 0.138 µM).

Question: What about the MIC [7] of the same compound?
Answer: Its MIC is 3.13 µg/mL.

Question: And the MIC [8]?
Answer: Its MIC is 0.39 µg/mL (≈ 1.08 µM).

Question: What about the MIC [9] of the same compound?
Answer: Its MIC is 0.05 µg/mL (≈ 0.138 µM).

Question: What about the MIC [10] of the same compound?
Answer: Its MIC is 0.78 µg/mL (≈ 2.16 µM).

Question: What about the MIC [11] of the same compound?
Answer: The MIC was 0.05 µg/mL (≈ 0.138 µM).

Question: And the MIC [12]?
Answer: Its MIC is 0.39 µg/mL.

Question: What about the MIC [13] of the same compound?
Answer: Its MIC is 0.39 µg/mL (≈ 1.08 µM).

Question: And the MIC [14]?
Answer: The MIC was 0.78 µg/mL.

Question: And the MIC ([15]; 54 strains of clinically isolated methicillin resistant Staphylococcus aureus)?
Answer: The MIC was 0.39 to 1.56 µg/mL (≈ 1.08 to 4.32 µM).

Question: What about the MIC50 ([15]; Staphylococcus aureus, minimum concentration for inhibiting the growth of the strains by 50%, 54 strains) of the same compound?
Answer: Its MIC50 is 0.39 µg/mL (≈ 1.08 µM).

Question: What about the MIC90 ([15]; Staphylococcus aureus, minimum concentration for inhibiting the growth of the strains by 90%, 54 strains) of the same compound?
Answer: The MIC90 was 1.56 µg/mL (≈ 4.32 µM).

Question: And the ED50 [16]?
Answer: Its ED50 is 22.9 mg/kg.

Question: And the ED50 [17]?
Answer: Its ED50 is 50 mg/kg.

— US4808584A, “Quinolinecarboxylic acid derivatives and antibacterial agent containing the same” (Kanebo, Ltd., priority 1987, dated 1989)
